Data as given in patent publication US8334294B2, “4,8-diphenyl-polyazanaphthalene derivatives” (Almirall, S.A., priority 2007, dated 2012).

What follows are molecules tested against T1, human p38alfa (SAPKa) enzyme (Homo sapiens, UniProt Q16539) (assay: p38 enzymatic activity inhibition assay (FRET, ATF2 substrate)). Settings: 1 h pre-incubation; ATF2 0.62 μM, ATP 60 μM; 1 h at 25° C.; read-out: p38α IC50.
T1 construct: purchased University of Dundee
T1 sequence (Q16539 whole entry): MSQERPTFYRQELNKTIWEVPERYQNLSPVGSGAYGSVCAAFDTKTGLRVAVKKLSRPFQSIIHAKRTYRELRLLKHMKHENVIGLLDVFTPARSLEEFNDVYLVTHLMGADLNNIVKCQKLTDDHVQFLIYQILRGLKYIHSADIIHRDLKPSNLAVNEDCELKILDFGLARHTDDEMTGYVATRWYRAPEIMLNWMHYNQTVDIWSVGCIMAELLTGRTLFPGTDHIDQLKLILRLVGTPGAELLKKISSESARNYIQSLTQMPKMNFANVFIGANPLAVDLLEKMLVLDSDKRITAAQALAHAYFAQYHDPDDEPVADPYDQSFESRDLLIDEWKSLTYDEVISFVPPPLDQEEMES
Assay type: biochemical
Experimental: Enzymatic activity assay was performed in 96-well microtiter plates (Corning, catalog number #3686) using a total volume of 50 μl of an assay buffer composed of 50 mM HEPES pH 7.5, 10 mM MgCl2, 1.75 mM Na3VO4.
Various concentrations of the test compound or vehicle controls were pre-incubated for one hour with 0.055 μg/ml of the human p38alfa (SAPKa) enzyme (obtained from University of Dundee). The reaction started by addition of biotinylated ATF2 substrate and ATP in concentrations around their Km values (final concentration 0.62 μM and 60 μM respectively) and took place for one hour at 25° C. Addition of the detection reagents, streptavidin-XL665 and anti-phosphoresidue antibody coupled to Europium cryptate, caused the juxtaposition of the cryptate and the XL665 fluorophore, resulting in fluorescence energy transfer (FRET). The FRET intensity depends on the amount of bounded cryptate antibody, which is proportional to the extent of substrate phosphorylation. FRET intensity was measured using Victor 2V spectrofluorometer. Data were analyzed by non-linear regression (Hill equation) to generate a dose-response curve. The calculated IC50 value is the concentration of the test compound that caused a 50% decrease in the maximal FRET intensity.
An IC50 of 3.3 nM was found for `O=c1cc(-c2ccc(F)cc2Cl)c2cc[n+]([O-])c(-c3c(Cl)cccc3Cl)c2[nH]1` [Example 12, 4-(2-Chloro-4-fluorophenyl)-8-(2,6-dichlorophenyl)-1,7-naphthyridin-2(1H)-one 7-oxide] in this work.
An IC50 of 14 nM was found for `CN(C)CCNc1cc(-c2ccc(F)cc2Cl)c2cc[n+]([O-])c(-c3c(F)cccc3F)c2n1` [Example 10, N′-[4-(2-Chloro-4-fluorophenyl)-8-(2,6-difluorophenyl)-7-oxido-1,7-naphthyridin-2-yl]-N,N-dimethylethane-1,2-diamine] in this work.
An IC50 of 8 nM was found for `CNc1cc(-c2ccccc2Cl)c2cc[n+]([O-])c(-c3c(Cl)cccc3Cl)c2n1` [Example 19, 4-(2-Chlorophenyl)-8-(2,6-dichlorophenyl)-N-methyl-1,7-naphthyridin-2-amine 7-oxide] in this work.
An IC50 of 22 nM was found for `O=C(O)c1cc(-c2ccc(F)cc2F)c2cc[n+]([O-])c(-c3c(F)cccc3F)c2n1` [Example 2, 4-(2,4-Difluorophenyl)-8-(2,6-difluorophenyl)-1,7-naphthyridine-2-carboxylic acid 7-oxide] in this work.
An IC50 of 66 nM was found for `CS(=O)(=O)Nc1cc(-c2ccccc2Cl)c2cc[n+]([O-])c(-c3c(Cl)cccc3Cl)c2n1` [Example 21, N-[4-(2-Chlorophenyl)-8-(2,6-dichlorophenyl)-7-oxido-1,7-naphthyridin-2-yl]methanesulfonamide] in this work.
An IC50 of 6 nM was found for `O=c1cc(-c2ccc(F)cc2Cl)c2cc[n+]([O-])c(-c3c(F)cccc3F)c2[nH]1` [Example 8, 4-(2-Chloro-4-fluorophenyl)-8-(2,6-difluorophenyl)-1,7-naphthyridin-2(1H)-one 7-oxide] in this work.
An IC50 of 15 nM was found for `O=c1cc(-c2ccccc2Cl)c2cc[n+]([O-])c(-c3c(Cl)cccc3Cl)c2[nH]1` [Example 18, 4-(2-Chlorophenyl)-8-(2,6-dichlorophenyl)-1,7-naphthyridin-2(1H)-one 7-oxide] in this work.
An IC50 of 28 nM was found for `[O-][n+]1ccc2c(-c3ccc(F)cc3Cl)ncnc2c1-c1c(Cl)cccc1Cl` [Example 30, 4-(2-Chloro-4-fluorophenyl)-8-(2,6-dichlorophenyl)pyrido[3,4-d]pyrimidine 7-oxide] in this work.
An IC50 of 13 nM was found for `O=c1cc(-c2ccccc2Cl)c2ccnc(-c3c(Cl)cccc3Cl)c2[nH]1` [Example 17, 4-(2-Chlorophenyl)-8-(2,6-dichlorophenyl)-1,7-naphthyridin-2(1H)-one] in this work.
An IC50 of 85 nM was found for `Nc1cc(-c2ccccc2Cl)c2cc[n+]([O-])c(-c3c(Cl)cccc3Cl)c2n1` [Example 22, 4-(2-Chlorophenyl)-8-(2,6-dichlorophenyl)-1,7-naphthyridin-2-amine 7-oxide] in this work.
An IC50 of 34 nM was found for `Nc1nc(-c2ccc(F)cc2Cl)c2cc[n+]([O-])c(-c3c(Cl)cccc3Cl)c2n1` [Example 32, 4-(2-Chloro-4-fluorophenyl)-8-(2,6-dichlorophenyl)pyrido[3,4-d]pyrimidin-2-amine 7-oxide] in this work.
An IC50 of 12 nM was found for `CN(C)c1cc(-c2ccccc2Cl)c2cc[n+]([O-])c(-c3c(Cl)cccc3Cl)c2n1` [Example 20, 4-(2-Chlorophenyl)-8-(2,6-dichlorophenyl)-N,N-dimethyl-1,7-naphthyridin-2-amine 7-oxide] in this work.
An IC50 of 35 nM was found for `[O-][n+]1ccc2c(-c3ccc(F)cc3Cl)ncnc2c1-c1c(F)cccc1F` [Example 26, 4-(2-Chloro-4-fluorophenyl)-8-(2,6-difluorophenyl)pyrido[3,4-d]pyrimidine 7-oxide] in this work.
